In US11925612B2, “Bactericidal and virucidal pharmaceutical composition” (Quimica Luar SRL, priority 2015, dated 2024):
Where two headings read alike, the source gives them in different places.

Key:
Enterobacter aerogenes = test: Bactericidal test: CFU count after incubation in PBS buffer; type: cell-based; conditions: 4-hour contact at 37° C., control 1,000,000, Example 8
[1] = test system: Staphylococcus aureus (Gram+); test: as above; type: cell-based; conditions: control 1,000,000; for Colony count (UFC/mL ± 10) Staphylococcus: 4 hours at 37° C., Example 9; for Colony count (UFC/mL ± 10) S. aureus: 4-hour at 37° C., Example 15; for Colony count (UFC/mL ± 10): 4-hour contact at 37° C., Example 8
Burkhordelia cepacia = type: cell-based; conditions: control 1,300,000; for Colony count (UFC/mL ± 10) Burkhordelia: 4 hours at 37° C., Example 9; for Colony count (UFC/mL ± 10): 4-hour contact at 37° C., Example 8
Procedure: In this case, tests were run on a non-nutritive liquid carrier (buffer solution) wherein the antimicrobial agent is mixed with quantified inocula of pure bacterial cultures. After different incubation times, the material is seeded on agar plates to perform quantification assays on the number of bacterias surviving the treatment.
Work consisted of incubating bacterial populations of a known load in terms of CFU/mL with the compounds mentioned in different molar concentrations. In vitro test batteries were organized at different doses or concentrations and in 1.5 mL Eppendorf tubes without the addition of culture medium. To this purpose, a PBS 100 mM phosphate buffer was used to maintain physiological conditions throughout the period of each test at 37° C.
When the time for each assay finished, aliquots of 100 uL and decimal dilutions of each tube which were seeded on petri dishes for the direct count of colony forming units (CFU) in Mueller Hinton agar (MHA), using pour-plating or spread-plating standard methods.
Each plate was added with 5 uL of a solution of 2,3,5-metabolic dye triphenyltetrazolium of chloride (TTC) 1% to enhance the contrast of colonies. Plates were incubated in inverted position, in a culture stove for 24-48 hours at 37° C. and subsequently the direct count was done, adjusted by dilution factors and seeding to report results in terms of CFU/mL.
During testing, the medium was stored in thermostatic bath between 45-50° C. because the seeding technique requires imbibing and integrating bacteria in the medium.

Pseudomonas fluorescens = test: Bactericidal test: CFU count after incubation in PBS buffer; type: cell-based; conditions: 4-hour contact at 37° C., control 100,000, Example 8
[2] = test system: Bacillus subtilis (Gram+); test: as above; type: cell-based; conditions: 4-hour contact at 37° C., control 500,000, Example 8
[3] = test system: Enterococcus faecalis (Gram+); test: as above; type: cell-based; conditions: 4-hour contact at 37° C., control 100,000, Example 8
Escherichia coli = test: as above; type: cell-based; conditions: 4-hour contact at 37° C., control 1,000,000, Example 8
Klebsiella pneumoniae = test: as above; type: cell-based; conditions: 4-hour contact at 37° C., control 1,000,000, Example 8
P. aeruginosa = test: as above; type: cell-based, Pseudomonas aeruginosa; conditions: for P. aeruginosa count (UFC/mL ± 10) As a function of treatment time: 37° C., control 2,000,000, Example 6

Question: `CC(C)Cc1ccc(C(C)C(=O)O)cc1.[Na]` (stereo not drawn) [IBU-Na, SODIUM IBUPROFEN] was tested. Which “Colony count (UFC/mL ± 10)” value (Enterobacter aerogenes; IBU-Na 50 mM) did it give?
Answer: The value was 450 UFC/mL.

Question: And the “Colony count (UFC/mL ± 10)” value (Enterobacter aerogenes; IBU-Na 100 mM)?
Answer: Its value is 10 UFC/mL.

Question: And the “Colony count (UFC/mL ± 10) Staphylococcus” value ([1]; IBU-Na 5 mM)?
Answer: Its value is 1,000,000 UFC/mL.

Question: What about the “Colony count (UFC/mL ± 10) Staphylococcus” value ([1]; IBU-Na 10 mM) of the same compound?
Answer: Its value is 1,000,000 UFC/mL.

Question: What about the “Colony count (UFC/mL ± 10) S. aureus” value ([1]; IBU-Na 12.5 mM + ClNa (1M)) of the same compound?
Answer: The value was 100 UFC/mL.

Question: And the “Colony count (UFC/mL ± 10) S. aureus” value ([1]; IBU-Na 25 mM + ClNa (1M))?
Answer: Its value is 10 UFC/mL.

Question: What about the “Colony count (UFC/mL ± 10) Staphylococcus” value ([1]; IBU-Na 25 mM) of the same compound?
Answer: The value was 30,000 UFC/mL.

Question: What about the “Colony count (UFC/mL ± 10) S. aureus” value ([1]; IBU-Na 50 mM + ClNa (1M)) of the same compound?
Answer: Its value is 10 UFC/mL.

Question: And the “Colony count (UFC/mL ± 10)” value ([1]; IBU-Na 50 mM)?
Answer: The value was 550 UFC/mL.

Question: And the “Colony count (UFC/mL ± 10) Staphylococcus” value ([1]; IBU-Na 50 mM)?
Answer: Its value is 600 UFC/mL.

Question: And the “Colony count (UFC/mL ± 10)” value ([1]; IBU-Na 100 mM)?
Answer: Its value is 10 UFC/mL.

Question: And the “Colony count (UFC/mL ± 10) Staphylococcus” value ([1]; IBU-Na 100 mM)?
Answer: The value was 10 UFC/mL.

Question: What about the “Colony count (UFC/mL ± 10) Burkhordelia” value (Burkhordelia cepacia; IBU-Na 5 mM) of the same compound?
Answer: Its value is 1,300,000 UFC/mL.

Question: And the “Colony count (UFC/mL ± 10) Burkhordelia” value (Burkhordelia cepacia; IBU-Na 10 mM)?
Answer: The value was 1,300,000 UFC/mL.

Question: And the “Colony count (UFC/mL ± 10) Burkhordelia” value (Burkhordelia cepacia; IBU-Na 25 mM)?
Answer: The value was 40,000 UFC/mL.

Question: What about the “Colony count (UFC/mL ± 10)” value (Burkhordelia cepacia; IBU-Na 50 mM) of the same compound?
Answer: Its value is 680 UFC/mL.

Question: And the “Colony count (UFC/mL ± 10) Burkhordelia” value (Burkhordelia cepacia; IBU-Na 50 mM)?
Answer: The value was 700 UFC/mL.

Question: What about the “Colony count (UFC/mL ± 10)” value (Burkhordelia cepacia; IBU-Na 100 mM) of the same compound?
Answer: The value was 10 UFC/mL.

Question: What about the “Colony count (UFC/mL ± 10) Burkhordelia” value (Burkhordelia cepacia; IBU-Na 100 mM) of the same compound?
Answer: The value was 10 UFC/mL.

Question: And the “Colony count (UFC/mL ± 10)” value (Pseudomonas fluorescens; IBU-Na 50 mM)?
Answer: Its value is 150 UFC/mL.

Question: What about the “Colony count (UFC/mL ± 10)” value (Pseudomonas fluorescens; IBU-Na 100 mM) of the same compound?
Answer: Its value is 10 UFC/mL.

Question: And the “Colony count (UFC/mL ± 10)” value ([2]; IBU-Na 50 mM)?
Answer: Its value is 250 UFC/mL.

Question: And the “Colony count (UFC/mL ± 10)” value ([2]; IBU-Na 100 mM)?
Answer: Its value is 10 UFC/mL.

Question: And the “Colony count (UFC/mL ± 10)” value ([3]; IBU-Na 50 mM)?
Answer: Its value is 180 UFC/mL.

Question: And the “Colony count (UFC/mL ± 10)” value ([3]; IBU-Na 100 mM)?
Answer: Its value is 10 UFC/mL.

Question: What about the “Colony count (UFC/mL ± 10)” value (Escherichia coli; IBU-Na 50 mM) of the same compound?
Answer: The value was 500 UFC/mL.

Question: What about the “Colony count (UFC/mL ± 10)” value (Escherichia coli; IBU-Na 100 mM) of the same compound?
Answer: The value was 10 UFC/mL.

Question: And the “Colony count (UFC/mL ± 10)” value (Klebsiella pneumoniae; IBU-Na 50 mM)?
Answer: Its value is 600 UFC/mL.

Question: And the “Colony count (UFC/mL ± 10)” value (Klebsiella pneumoniae; IBU-Na 100 mM)?
Answer: The value was 10 UFC/mL.

Question: What about the “P. aeruginosa (UFC/mL ± 10)” value (P. aeruginosa; IBU 10 mM, 4 h at 37° C., control 1,700,000, Example 4) of the same compound?
Answer: The value was 760,000 UFC/mL.

Question: What about the “P. aeruginosa (UFC/mL ± 10)” value (P. aeruginosa; IBU 20 mM y NaCl (1M), preincubated 1 hour with human Albumin 5 mg/mL, 4 hours at 37° C., control 1,000,000, Example 16) of the same compound?
Answer: The value was 1500 UFC/mL.

Question: What about the “P. aeruginosa (UFC/mL ± 10)” value (P. aeruginosa; IBU 20 mM, 4 h at 37° C., control 1,700,000, Example 4) of the same compound?
Answer: Its value is 300,000 UFC/mL.

Question: And the “P. aeruginosa (UFC/mL ± 10)” value (P. aeruginosa; IBU 50 mM, 4 h at 37° C., control 1,700,000, Example 4)?
Answer: The value was 50 UFC/mL.

Question: And the “P. aeruginosa count (UFC/mL ± 10) As a function of treatment time” value (“P. aeruginosa count” for short) (P. aeruginosa; IBU-Na 1 mM, 1 hour)?
Answer: The value was 2,000,000 UFC/mL.

Question: And the “P. aeruginosa count” value (P. aeruginosa; IBU-Na 1 mM, 4 hours)?
Answer: The value was 2,000,000 UFC/mL.

Question: What about the “P. aeruginosa count” value (P. aeruginosa; IBU-Na 1 mM, Overnight (O.N.)) of the same compound?
Answer: The value was 2,000,000 UFC/mL.

Question: What about the “P. aeruginosa (UFC/mL ± 10)” value (P. aeruginosa; IBU-Na 1 mM, Population A (control 200,000), 4 h at 37° C., Example 5) of the same compound?
Answer: Its value is 200,000 UFC/mL.

Question: What about the “P. aeruginosa (UFC/mL ± 10)” value (P. aeruginosa; IBU-Na 1 mM, Population B (control 20,000), 4 h at 37° C., Example 5) of the same compound?
Answer: Its value is 20,000 UFC/mL.

Question: What about the “P. aeruginosa (UFC/mL ± 10)” value (P. aeruginosa; IBU-Na 1 mM, Population C (control 2,000), 4 h at 37° C., Example 5) of the same compound?
Answer: Its value is 2,000 UFC/mL.
